Data from patent publication US20050209278A1, “Piperidinyl- and piperazinyl-sulfonylmethyl hydroxamic acids and their use as protease inhibitors” (priority 2002, published 2005).

Columns and labels:
Assay type in all cases: biochemical
MMP-2 = biological target: T1, MMP-2 (Homo sapiens, UniProt P08253); experiment: MMP-2 inhibition (in vitro Ki); details: Table 9; read-out: MMP-2 Ki (IC-50)
T1 construct: made in house; host or cells: MMP-2-transfected p2AHT2 cells
T1 sequence (P08253 110-660): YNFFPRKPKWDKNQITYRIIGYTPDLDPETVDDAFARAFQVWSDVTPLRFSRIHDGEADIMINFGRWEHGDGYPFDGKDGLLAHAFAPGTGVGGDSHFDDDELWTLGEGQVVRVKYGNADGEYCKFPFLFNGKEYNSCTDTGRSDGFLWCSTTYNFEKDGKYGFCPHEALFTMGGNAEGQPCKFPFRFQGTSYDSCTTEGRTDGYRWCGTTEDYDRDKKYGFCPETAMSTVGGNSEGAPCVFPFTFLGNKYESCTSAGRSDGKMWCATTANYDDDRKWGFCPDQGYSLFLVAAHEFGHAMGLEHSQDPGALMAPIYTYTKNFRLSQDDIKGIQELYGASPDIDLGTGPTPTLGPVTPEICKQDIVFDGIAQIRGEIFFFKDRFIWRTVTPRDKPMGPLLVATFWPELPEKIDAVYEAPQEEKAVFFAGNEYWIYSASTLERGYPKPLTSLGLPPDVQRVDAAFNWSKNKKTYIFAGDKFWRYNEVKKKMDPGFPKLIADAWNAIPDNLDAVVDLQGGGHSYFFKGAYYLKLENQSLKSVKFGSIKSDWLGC

MMP-9 = biological target: T2, MMP-9 (Homo sapiens, UniProt P14780); experiment: MMP-9 inhibition (in vitro Ki); details: Table 9; read-out: MMP-9 Ki (IC-50)
T2 construct: made in house; host or cells: MMP-9-transfected HT1080 cells (spent media)
T2 sequence (P14780 107-707 limits assumed): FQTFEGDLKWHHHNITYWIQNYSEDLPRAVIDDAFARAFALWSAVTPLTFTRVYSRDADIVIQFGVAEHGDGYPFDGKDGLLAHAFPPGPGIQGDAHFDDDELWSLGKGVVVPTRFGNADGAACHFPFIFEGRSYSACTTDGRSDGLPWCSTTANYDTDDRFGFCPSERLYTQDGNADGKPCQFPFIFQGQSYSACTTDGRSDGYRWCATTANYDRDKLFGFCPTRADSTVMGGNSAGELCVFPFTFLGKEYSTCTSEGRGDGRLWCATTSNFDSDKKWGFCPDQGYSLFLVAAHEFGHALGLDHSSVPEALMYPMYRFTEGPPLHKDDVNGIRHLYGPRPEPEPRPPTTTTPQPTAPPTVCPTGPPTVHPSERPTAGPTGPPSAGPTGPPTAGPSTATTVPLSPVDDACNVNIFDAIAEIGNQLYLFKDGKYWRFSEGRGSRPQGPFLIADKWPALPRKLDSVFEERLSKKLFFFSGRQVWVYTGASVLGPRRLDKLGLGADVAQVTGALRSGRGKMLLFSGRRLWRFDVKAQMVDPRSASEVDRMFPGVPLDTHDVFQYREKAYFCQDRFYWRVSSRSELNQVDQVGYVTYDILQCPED

MMP-13 = biological target: T3, MMP-13 (Homo sapiens, UniProt P45452); experiment: MMP-13 inhibition (in vitro Ki); details: Table 9; read-out: MMP-13 Ki (IC-50)
T3 construct: made in house; host or cells: baculovirus / insect cells

MMP-1 = biological target: T4, MMP-1 (Homo sapiens, UniProt P03956); experiment: MMP-1 inhibition (in vitro Ki); details: Table 9; read-out: MMP-1 Ki (IC-50)
T4 construct: made in house; host or cells: MMP-1-transfected HT-1080 cells (spent media)
T4 sequence (P03956 100-469): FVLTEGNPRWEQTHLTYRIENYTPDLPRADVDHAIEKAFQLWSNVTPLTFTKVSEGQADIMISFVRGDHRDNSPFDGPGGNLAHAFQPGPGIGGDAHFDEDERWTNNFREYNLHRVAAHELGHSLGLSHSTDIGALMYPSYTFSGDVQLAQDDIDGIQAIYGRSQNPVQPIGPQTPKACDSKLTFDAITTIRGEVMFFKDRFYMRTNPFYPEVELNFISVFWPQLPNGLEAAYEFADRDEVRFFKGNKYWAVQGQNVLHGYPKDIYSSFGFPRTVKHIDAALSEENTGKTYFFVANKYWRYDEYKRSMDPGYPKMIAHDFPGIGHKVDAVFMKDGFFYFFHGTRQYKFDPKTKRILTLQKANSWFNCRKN

MMP-14 = biological target: T5, MMP-14 (Homo sapiens, UniProt P50281); experiment: MMP-14 inhibition (in vitro Ki); details: Table 9; read-out: MMP-14 Ki (IC-50)
T5 construct: The catalytic domain enzyme was expressed in E. coli inclusion bodies, solubilized in urea; made in house

Row | SMILES | Ki (MMP-2) | Ki (MMP-9) | Ki (MMP-13) | Ki (MMP-1) | Ki (MMP-14)
1 | CN(C(=O)CCCN1CCN(S(=O)(=O)C2(C(=O)NO)CCOCC2)CC1)C1CCCCC1 [Example A130] | > 10000 nM | > 10000 nM | 2910 nM | > 10000 nM | > 10000 nM
2 | Cc1ccc(N2CCC(C(=O)NO)(S(=O)(=O)N3CCC(c4ccc(CCC(F)(F)C(F)(F)F)cn4)CC3)CC2)cn1 [Example A131] | 1.2 nM | 0.57 nM | 0.34 nM | > 10000 nM | 1910 nM
3 | CC(C)COc1cnc(C2CCN(S(=O)(=O)C3(C(=O)NO)CCOCC3)CC2)cn1 [Example A132] | 2.29 nM | 0.45 nM | 1.48 nM | 7170 nM | 5290 nM
4 | O=C(NO)C1(S(=O)(=O)N2CCC(c3ccc(C#CCCO)cn3)CC2)CCOCC1 [Example A133] | 0.77 nM | 1.07 nM | 1.12 nM | 1900 nM | 3870 nM
5 | O=C(NO)C1(S(=O)(=O)N2CCC(c3ccc(C#CCc4ccccc4)cn3)CC2)CCOCC1 [Example A134] | 0.65 nM | 1.25 nM | 0.109 nM | 1250 nM | 191 nM
6 | CC(=O)OCCCC#Cc1ccc(C2CCN(S(=O)(=O)C3(C(=O)NO)CCOCC3)CC2)nc1 [Example A135] | 0.31 nM | 0.48 nM | 0.28 nM | 2620 nM | 609 nM
7 | COC(=O)CCCC#Cc1ccc(C2CCN(S(=O)(=O)C3(C(=O)NO)CCOCC3)CC2)nc1 [Example A136] | 0.33 nM | 2.03 nM | 0.48 nM | 4300 nM | 1150 nM
8 | CCCCC#Cc1ccc(C2CCN(S(=O)(=O)C3(C(=O)NO)CCOCC3)CC2)nc1 [Example A137] | 0.37 nM | 0.32 nM | 0.09 nM | 1260 nM | 221 nM
9 | CC(C)CC#Cc1ccc(C2CCN(S(=O)(=O)C3(C(=O)NO)CCOCC3)CC2)nc1 [Example A138] | 0.68 nM | 0.24 nM | 0.14 nM | 3440 nM | 763 nM
10 | CCCC#Cc1ccc(C2CCN(S(=O)(=O)C3(C(=O)NO)CCOCC3)CC2)nc1 [Example A139] | 0.5 nM | 0.15 nM | 0.17 nM | 2340 nM | 401 nM
11 | O=C(CCCCN1CCN(S(=O)(=O)C2(C(=O)NO)CCOCC2)CC1)c1cccc(OC(F)(F)F)c1 [Example A140] | 390 nM | 814 nM | 12.5 nM | > 10000 nM | > 10000 nM
12 | CN(Cc1ccco1)C(=O)CCCC1CCN(S(=O)(=O)C2(C(=O)NO)CCOCC2)CC1 [Example A141] | 219 nM | 348 nM | 3.4 nM | 6900 nM | > 10000 nM
13 | Cc1ccc(N(C)C(=O)CCCC2CCN(S(=O)(=O)C3(C(=O)NO)CCOCC3)CC2)cc1 [Example A142] | 358 nM | 184 nM | 66.4 nM | > 10000 nM | > 10000 nM
14 | CN(C(=O)CCCC1CCN(S(=O)(=O)C2(C(=O)NO)CCOCC2)CC1)c1ccccc1 [Example A143] | 686 nM | 389 nM | 50.8 nM | > 10000 nM | > 10000 nM
15 | CN(C(=O)CCCC1CCN(S(=O)(=O)C2(C(=O)NO)CCOCC2)CC1)C1CCCCC1 [Example A144] | 958 nM | 1520 nM | 22.2 nM | > 10000 nM | > 10000 nM
16 | CCCN(C(=O)CCCC1CCN(S(=O)(=O)C2(C(=O)NO)CCOCC2)CC1)c1ccccc1 [Example A145] | 26.3 nM | 15.2 nM | 23 nM | > 10000 nM | 6520 nM

Row | SMILES | Ki (MMP-2) | Ki (MMP-9) | Ki (MMP-13) | Ki (MMP-1) | Ki (MMP-14)
17 | CN(C(=O)CCCC1CCN(S(=O)(=O)C2(C(=O)NO)CCOCC2)CC1)c1ccc(F)cc1 [Example A146] | 344 nM | 262 nM | 31.8 nM | > 10000 nM | > 10000 nM
18 | CCN(C(=O)CCCC1CCN(S(=O)(=O)C2(C(=O)NO)CCOCC2)CC1)c1ccccc1 [Example A147] | 76.1 nM | 42.9 nM | 44.8 nM | > 10000 nM | > 10000 nM
19 | COC(=O)CCCC1CCN(S(=O)(=O)C2(C(=O)NO)CCOCC2)CC1 [Example A148] | 6.67 nM | 3.79 nM | 5.21 nM | 2710 nM | 1730 nM
20 | COCCOc1ccc(C2CCN(S(=O)(=O)C3(C(=O)NO)CCOCC3)CC2)nc1 [Example A149] | 4.42 nM | 7.04 nM | 2.63 nM | > 10000 nM | 6550 nM
21 | O=C(CCCCN1CCN(S(=O)(=O)C2(C(=O)NO)CCOCC2)CC1)c1ccc(OC(F)(F)F)cc1 [Example A150] | 243 nM | 1030 nM | 19.8 nM | > 10000 nM | > 10000 nM
22 | O=C(NO)C1(S(=O)(=O)N2CCC(c3cnc(OCC4CC4)cn3)CC2)CCOCC1 [Example A151] | 1.34 nM | 0.72 nM | 1.53 nM | > 10000 nM | 3100 nM
23 | CC(F)(F)Cc1ccc(C2CCN(S(=O)(=O)C3(C(=O)NO)CCOCC3)CC2)nc1 [Example A152] | 2.36 nM | 9.85 nM | 5.25 nM | > 10000 nM | 4330 nM
24 | O=C(NO)C1(S(=O)(=O)N2CCC(OCCCn3nnc(-c4ccc(OC(F)(F)F)cc4)n3)CC2)CCOCC1 [Example A153] | 175 nM | 1910 nM | 0.37 nM | > 10000 nM | > 10000 nM
25 | CCCC(F)(F)c1ccc(C2CCN(S(=O)(=O)C3(C(=O)NO)CCOCC3)CC2)nc1 [Example A156] | 3.14 nM | 9.5 nM | 1.57 nM | 4550 nM | > 10000 nM
26 | O=C(NO)C1(S(=O)(=O)N2CCC(F)(c3ccc(CCCC(F)(F)F)cn3)CC2)CCOCC1 [Example A157] | 36.5 nM | 2.94 nM | 2.54 nM | > 10000 nM | > 10000 nM
27 | O=C(NO)C1(S(=O)(=O)N2CCC(c3ccc(CCC(F)(F)C(F)(F)F)cn3)CC2)CCN(c2ccc(Cl)cc2)CC1 [Example A158] | 14.6 nM | 13.4 nM | 8.98 nM | > 10000 nM | > 10000 nM
28 | CCCC(=O)c1ccc(C2CCN(S(=O)(=O)C3(C(=O)NO)CCOCC3)CC2)nc1 [Example A159] | 2.65 nM | 3.99 nM | 1.91 nM | 1840 nM | 8580 nM
29 | O=C(NO)C1(S(=O)(=O)N2CCC(CCCc3nc(-c4ccc(OC(F)(F)F)cc4)no3)CC2)CCOCC1 [Example A160] | 529 nM | 613 nM | 40.9 nM | > 10000 nM | > 10000 nM
30 | O=C(NO)C1(S(=O)(=O)N2CCC(c3ccc(CCC(F)F)cn3)CC2)CCOCC1 [Example A161] | 0.513 nM | 0.223 nM | 0.474 nM | 2970 nM | 1670 nM
31 | O=C(NO)C1(S(=O)(=O)N2CCC(c3ccc(COCC4CC4)cn3)CC2)CCOCC1 [Example A162] | 1.15 nM | 0.194 nM | 0.301 nM | 4510 nM | 2290 nM
32 | CN(C(=O)CCCCC1CCN(S(=O)(=O)C2(C(=O)NO)CCOCC2)CC1)c1ccc(OC(F)(F)F)cc1 [Example A163] | 225 nM | 1630 nM | 2.53 nM | 1490 nM | > 10000 nM
